Measurements from the supplement of paper PMC11061612.

Legend:
Assay in all cases: Bliss excess, mean over the matrix (fraction); higher = more synergy
TC-71 (Ewing's Sarcoma) = test system: TC-71 (Ewing's Sarcoma)
How it was run: (§1)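 After 24 hours at 37°C and 5% CO2 in 1536-well plates, cells in DMEM/F12 or RPMI plus 10% FBS received two-drug dose matrices for 72 hours. Viability came from CellTiter-Glo 2.0 luminescence and was scaled as inhibition, anchored at 0 by vehicle wells and at 1 by blank wells. Combination Emax is taken as the second-highest inhibition in the matrix, and Bliss excess as the observed combination effect less EA + EB − EA·EB, with EA and EB the single-agent effects.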

[1] = test system: MOLT-16 (T-Lymphoblastic Leukemia)
How it was run: as §1

[2] = test system: COLO-678 (Colorectal Carcinoma)
How it was run: as §1

[3] = test system: KM12 (Colorectal Carcinoma)
How it was run: as §1

[4] = test system: GR-ST (B-Lymphoblastic Leukemia)
How it was run: as §1

[5] = test system: EVSA-T (Breast Carcinoma)
How it was run: as §1

[6] = test system: KARPAS-45 (T-Lymphoblastic Leukemia)
How it was run: as §1

[7] = test system: BFTC-905 (Bladder Carcinoma)
How it was run: as §1

[8] = test system: TOV-112D (Ovarian Carcinoma)
How it was run: as §1

[9] = test system: MKN28 (Gastric Carcinoma)
How it was run: as §1

[10] = test system: K-562 (Chronic Myelogenous Leukemia)
How it was run: as §1

[11] = test system: SW1417 (Colorectal Carcinoma)
How it was run: as §1

[12] = test system: PANC-08-13 (Pancreatic Carcinoma)
How it was run: as §1

[13] = test system: KYSE-180 (Esophageal Squamous Cell Carcinoma)
How it was run: as §1

[14] = test system: DiFi (Colorectal Carcinoma)
How it was run: as §1

[15] = test system: P12-ICHIKAWA (T-Lymphoblastic Leukemia)
How it was run: as §1

WIL2-NS (Non-Cancerous) = test system: WIL2-NS (Non-Cancerous)
How it was run: as §1

CHP-212 (Neuroblastoma) = test system: CHP-212 (Neuroblastoma)
How it was run: as §1

[16] = test system: NCI-H1792 (Lung Adenocarcinoma)
How it was run: as §1

[17] = test system: HL-60 (Acute Myeloid Leukemia)
How it was run: as §1

| SMILES | Bliss excess (TC-71 (Ewing's Sarcoma)) | Bliss excess [1] | Bliss excess [2] | Bliss excess [3] | Bliss excess [4] | Bliss excess [5] | Bliss excess [6] | Bliss excess [7] | Bliss excess [8] | Bliss excess [9] | Bliss excess [10] | Bliss excess [11] | Bliss excess [12] | Bliss excess [13] | Bliss excess [14] | Bliss excess [15] | Bliss excess (WIL2-NS (Non-Cancerous)) | Bliss excess (CHP-212 (Neuroblastoma)) | Bliss excess [16] | Bliss excess [17] |
| --- | --- | --- | --- | --- | --- | --- | --- | --- | --- | --- | --- | --- | --- | --- | --- | --- | --- | --- | --- | --- |
| CN(CCO)CC[C@H](CSc1ccccc1)Nc1ccc(S(=O)(=O)NC(=O)c2ccc(N3CCC([C@@H](O)c4ccccc4-c4ccc(Cl)cc4)CC3)cc2)cc1S(=O)(=O)C(F)(F)F [AZD4320] + C[C@@H](Nc1cc(F)cc(F)c1)c1cc(C(=O)N(C)C)cc2c(=O)cc(N3CCOCC3)oc12 [AZD8186] (first compound max 1 µM, 7x7, partner max 3 µM) | -0.027 | -0.0157 | 0.0221 | 0.0562 | -0.054 | 0.0222 | 0.0842 | -0.0221 | -0.0108 | 0.0229 | 0.0309 | 0.0346 | -0.007 | 0.0343 | -0.034 | 0.0502 | -0.0709 | -0.072 | 0.0942 |  |
| COc1nnc2ccc(N3CCC(c4ccc(OCCN5CCN(C)C(=O)[C@H]5C)cc4)CC3)nn12 [AZD5153] + CN(CC[C@H](CSC1=CC=CC=C1)NC2=C(C=C(C=C2)S(=O)(=O)NC(=O)C3=CC=C(C=C3)N4CCC(CC4)[C@H](C5=CC=CC=C5C6=CC=C(C=C6)Cl)O)S(=O)(=O)C(F)(F)F)CCO [AZD4320] (first compound max 1 µM, 7x7, partner max 1 µM) | -0.081 | 0.0258 | 0.0322 | 0.0033 |  | 0.0426 | 0.0274 |  | 0.0022 |  |  |  | 0.0589 | 0.0551 | 0.0671 | 0.0283 |  | -0.0243 |  | -0.0203 |
| CC1(C)CCC(CN2CCN(c3ccc(C(=O)NS(=O)(=O)c4ccc(NCC5CCOCC5)c([N+](=O)[O-])c4)c(Oc4cnc5[nH]ccc5c4)c3)CC2)=C(c2ccc(Cl)cc2)C1 [Venetoclax] + C[C@@H]1COCCN1C2=NC(=NC(=C2)C3(CC3)[S@](=N)(=O)C)C4=C5C=CNC5=NC=C4 [AZD6738] (first compound max 1 µM, 7x7, partner max 10 µM) | -0.0299 | -0.0319 | -0.0293 | 0.0189 | -0.2 | 0.0144 | 0.0449 | -0.032 | -0.0251 | -0.009 | -0.0039 | -0.0247 | -0.0482 | -0.0173 | -0.0183 | 0.0418 | -0.0346 | -0.0419 | -0.018 | -0.0656 |
| C[C@@H](c1ccc2nccn2c1)n1nnc2ncc(-c3cnn(C)c3)nc21 [Savolitinib] + CN(CC[C@H](CSC1=CC=CC=C1)NC2=C(C=C(C=C2)S(=O)(=O)NC(=O)C3=CC=C(C=C3)N4CCC(CC4)[C@H](C5=CC=CC=C5C6=CC=C(C=C6)Cl)O)S(=O)(=O)C(F)(F)F)CCO [AZD4320] (first compound max 1 µM, 7x7, partner max 1 µM) | -0.0266 | -0.0222 | -0.0766 | -0.0156 |  | 0.0099 | -0.0289 |  | -0.0414 |  |  |  | -0.0588 | -0.0161 | -0.0713 | -0.0097 |  | -0.0613 |  | -0.0536 |
| CC(=O)c1c(C)c2cnc(Nc3ccc(N4CCNCC4)cn3)nc2n(C2CCCC2)c1=O [Palbociclib] + CN(CC[C@H](CSC1=CC=CC=C1)NC2=C(C=C(C=C2)S(=O)(=O)NC(=O)C3=CC=C(C=C3)N4CCC(CC4)[C@H](C5=CC=CC=C5C6=CC=C(C=C6)Cl)O)S(=O)(=O)C(F)(F)F)CCO [AZD4320] (first compound max 10 µM, 7x7, partner max 1 µM) | -0.0326 | -0.0494 | -0.0747 | -0.0377 |  | -0.0631 | -0.0035 |  | -0.0002 |  |  |  | -0.0459 | -0.0269 | -0.0038 | -0.0298 |  | -0.0366 |  | -0.102 |
| CN(C)CCCOc1ccc(-c2ccc3ncc4c(c3c2)n(C2CCOCC2)c(=O)n4C)cn1 [AZD0156] + CCN(CCO)CCCOc1ccc2c(Nc3cc(CC(=O)Nc4cccc(F)c4)[nH]n3)ncnc2c1 [AZD2811] (first compound max 1 µM, 7x7, partner max 1 µM) | 0.0495 | -0.0087 | -0.0179 | -0.0163 | 0.0033 | 0.0104 | -0.0515 | 0.0116 | -0.0025 | -0.0295 | -0.0011 | -0.0418 | -0.0461 | -0.0153 | -0.0363 |  | -0.003 | -0.0254 | -0.0032 | -0.0762 |
| Cc1cc2ncnn2cc1Nc1ncc2c(n1)n(C1CCOCC1)c(=O)n2C [AZD7648] + O=C(c1cc(Cc2n[nH]c(=O)c3ccccc23)ccc1F)N1CCN(C(=O)C2CC2)CC1 [Olaparib] (first compound max 10 µM, 7x7, partner max 10 µM) | -0.0106 | -0.019 | -0.0177 | -0.035 | -0.0706 | -0.0077 | 0.0031 | -0.0299 | -0.0285 | -0.0411 | 0.0107 | -0.0597 | -0.0538 | -0.0406 | -0.0484 |  | -0.0669 | -0.0391 | -0.033 | -0.0151 |
| COc1cccc2c1C(=O)c1c(O)c3c(c(O)c1C2=O)C[C@@](O)(C(=O)CO)C[C@@H]3O[C@H]1C[C@H](N)[C@H](O)[C@H](C)O1 [Doxorubicin] + Cc1cc2ncnn2cc1Nc1ncc2c(n1)n(C1CCOCC1)c(=O)n2C [AZD7648] (first compound max 1 µM, 7x7, partner max 10 µM) | 0.162 | 0.143 | 0.0188 | 0.0554 | 0.0279 | 0.0503 | -0.0006 | 0.131 | 0.0679 | -0.0179 | 0.076 | 0.0216 | -0.0102 | 0.0587 | 0.051 |  | 0.0885 | 0.0611 | 0.067 | 0.108 |
| C[C@@H]1COCCN1c1cc(C2([S@](C)(=N)=O)CC2)nc(-c2ccnc3[nH]ccc23)n1 [AZD6738] + O=C(c1cc(Cc2n[nH]c(=O)c3ccccc23)ccc1F)N1CCN(C(=O)C2CC2)CC1 [Olaparib] (first compound max 10 µM, 7x7, partner max 10 µM) | -0.0726 | -0.0064 | -0.0046 | 0.0138 | -0.0471 | 0.0017 | 0.0023 | 0.0156 | 0.0206 | -0.001 | -0.0646 | 0.0033 | 0.0021 | 0.0762 | 0.0033 |  | -0.0083 | -0.0095 | 0.0178 | -0.0275 |
| C=CCn1c(=O)c2cnc(Nc3ccc(N4CCN(C)CC4)cc3)nc2n1-c1cccc(C(C)(C)O)n1 [AZD1775] + C[C@@H]1COCCN1C2=NC(=NC(=C2)C3(CC3)[S@](=N)(=O)C)C4=C5C=CNC5=NC=C4 [AZD6738] (first compound max 1 µM, partner max 10 µM) | 0.0431 | 0.0101 | -0.028 | 0.0228 | -0.0217 | 0.033 | 0.0465 | 0.0665 | 0.0714 | 0.0597 | 0.0433 | -0.0253 | -0.0203 | 0.0869 | 0.0242 |  | 0.0269 | -0.0567 | 0.0105 | 0.0975 |
| Cc1c2c(nn1C)CSCc1cc(n(C)n1)CSc1cc(c3ccccc3c1)OCCCc1c(C(=O)O)n(C)c3c-2c(Cl)ccc13 [AZD5991] + CC1(C)CCC(CN2CCN(c3ccc(C(=O)NS(=O)(=O)c4ccc(NCC5CCOCC5)c([N+](=O)[O-])c4)c(Oc4cnc5[nH]ccc5c4)c3)CC2)=C(c2ccc(Cl)cc2)C1 [Venetoclax] (first compound max 1 µM, 7x7, partner max 1 µM) | 0.0733 | 0.063 |  | 0.0015 | -0.0484 | 0.0125 | 0.141 | -0.0016 | 0.0582 | -0.0332 | -0.003 | -0.0294 | -0.0411 | 0.0103 | 0.0436 | 0.0268 | -0.0302 | -0.0416 | 0.0248 | 0.0723 |
| Cc1c2c(nn1C)CSCc1cc(n(C)n1)CSc1cc(c3ccccc3c1)OCCCc1c(C(=O)O)n(C)c3c-2c(Cl)ccc13 [AZD5991] + C[C@@H](Nc1cc(F)cc(F)c1)c1cc(C(=O)N(C)C)cc2c(=O)cc(N3CCOCC3)oc12 [AZD8186] (first compound max 1 µM, 7x7, partner max 3 µM) | 0.0276 | -0.0154 | -0.0613 | 0.0121 | -0.0352 | 0.0412 | 0.0206 | -0.012 | -0.0028 | -0.0326 | 0.0096 | -0.0342 | 0.0187 | 0.0187 | 0.0406 | -0.0058 | -0.0749 | -0.0203 | -0.0108 |  |
| CCc1c2c(nc3ccc(O)cc13)-c1cc3c(c(=O)n1C2)COC(=O)[C@]3(O)CC [SN-38] + CN(C)CCCOc1ccc(-c2ccc3ncc4c(c3c2)n(C2CCOCC2)c(=O)n4C)cn1 [AZD0156] (first compound max 0.3 µM, 7x7, partner max 1 µM) | 0.0736 | 0.0538 | -0.0558 | 0.0711 | -0.0319 | -0.0354 | -0.0082 | 0.0608 | 0.0401 | 0.0117 | 0.0331 | -0.033 | -0.0316 | 0.0421 | 0.0735 |  | 0.08 | 0.0143 | 0.0517 | 0.115 |
| COc1cccc(OCCCN)c1-c1cc(Nc2cnc(C#N)cn2)n[nH]1 [Prexasertib] + C=CCn1c(=O)c2cnc(Nc3ccc(N4CCN(C)CC4)cc3)nc2n1-c1cccc(C(C)(C)O)n1 [AZD1775] (first compound max 1 µM, partner max 1 µM) | 0.0949 | 0.0716 | -0.0079 | 0.0787 | -0.0448 | 0.0197 | 0.0553 | 0.147 | 0.137 | 0.0901 | 0.0497 | 0.0443 | -0.0174 | 0.132 | 0.0236 |  | 0.0513 | -0.0368 | 0.0638 | 0.0981 |
